Experimental findings from a melting point compilation (Tetko et al.) are described below.

Molecules are shown by their SMILES.

As a reminder, the melting point is the temperature, or range, at which the solid turns liquid. With `CN(C)C(=O)c1ccc(Cl)cc1N`, the melting point was in the range of 65 to 67 °C.
Next, `O=C(CCl)c1ccc2c(c1)CCCC2`: 62 to 64 °C; `Nc1cccc(N2C(=O)c3ccccc3C2=O)c1`: 189 to 191 °C; `CC(=O)c1cccc(N2C(=O)C=CC2=O)c1`: 104 to 106 °C.
Next, `O=C1CC(c2cccc(F)c2)CN1` (configuration not stated): 77 to 79 °C; `CN(c1ccc(O)cc1)S(=O)(=O)c1ccc(F)cc1`: 152 to 154 °C.
In the case of `Cc1ccc(-c2ncc(C(=O)O)s2)c(C)c1` it was 171 to 173 °C.
On to `O=C(c1ccc(Cl)cc1)c1ncccn1`, for which the melting point was in the range of 91 to 93 °C.
Regarding `CN1CC(=O)N(Cc2ccc(C(N)=O)cc2[N+](=O)[O-])C1=O`, the melting point lay in the range of 219 to 221 °C.
Next, `NNc1ccc(S(=O)(=O)NC2CCCC2)cn1`: 167 to 169 °C; `Cc1ccc(OCC2CCCO2)c(S(=O)(=O)Cl)c1` (configuration not stated): 76 to 78 °C; `CC(NC(N)=O)C(=O)O` (configuration not stated): 171 to 173 °C.
In the case of `CC(C)(C)c1ccc(OCCCC(=O)O)cc1` it was 53 to 55 °C.
Turning to `Cc1noc(C)c1COc1ccc(CC(=O)O)cc1`, the melting point is 138 to 140 °C.
Next, `O=C(O)C(Oc1cccc(Cl)c1Cl)c1ccccc1` (configuration not stated): 147 to 149 °C; `O=C(O)c1cccc(S(=O)(=O)N2CCCCC2)c1`: 178 to 180 °C.
In the case of `O=C(O)C1CCCCN1C(=O)C1CCCC1` (configuration not stated) it was 121 to 123 °C.
The compound `CC(Cl)c1cn(-c2ccccc2)nn1` (configuration not stated) returned a melting point of 69 to 71 °C.
Next, `N#Cc1cc(F)c(C(=O)O)c(F)c1`: 189 to 191 °C.
In turn, `O=C(NO)c1ccccc1C(F)(F)F` registered a melting point of 157 to 159 °C.
In the case of `CC(C)(C)OC(=O)N1CCN2C(=O)NCC2C1` (configuration not stated) it was 218 to 220 °C.
Next, `Nc1ccccc1NS(=O)(=O)c1ccccc1`: 169 to 171 °C; `CSc1nc(Cl)cc(NN)n1`: 154 to 156 °C; `CNC(=O)OCC(F)(F)F`: 35 to 37 °C.
On to `O=C(Nc1ccccc1F)C1CSCN1` (configuration not stated), for which the melting point was in the range of 97 to 99 °C.
`Cn1ccnc1SCC(=O)Nc1cc(C(=O)O)ccc1Cl` returned a melting point of 223 to 225 °C.
In the case of `O=C(O)CN1C(=O)c2cc(Cl)c(Cl)cc2C1=O` it was 309 to 311 °C.
In the case of `Nc1sc2c(c1-c1nc3ccccc3s1)CCCC2` it was 100 to 104 °C; in that of `O=S(=O)(Cl)CCOc1ccc(F)cc1`, 34 to 36 °C; in that of `CCOc1ccccc1-c1cccc(C(=O)O)c1`, 144 to 146 °C.
Next, `Cc1ccc(-n2nnc(C(=O)O)c2C2CC2)cc1`: 173 to 175 °C.
On to `O=C(O)CCCSc1ccc(Cl)cc1`, for which the melting point lay in the range of 106 to 108 °C.
`CC(C)(C)OC(=O)N1CCN(CC(O)c2ccco2)CC1` (configuration not stated): the melting point lay within 57 to 59 °C.
Regarding `N#CCc1ccccc1CC(=O)O`, the melting point lay in the range of 99 to 101 °C.
In the case of `NS(=O)(=O)c1cnn(CCC(=O)O)c1` it was 126 to 128 °C; in that of `Cc1cc(C(=O)CCl)c(C)n1-c1ccc(OC(F)F)cc1`, 83 to 87 °C.
Next, `O=C(O)c1cc(-c2ccccc2Cl)nc2ccccc12`: 273 to 275 °C.
In the case of `COC(=O)Cc1c(C(=O)OC)sc(N)c1C(=O)OC` it was 178 to 180 °C.
For `O=C(Nc1ncccn1)C1CCNCC1`, the melting point is 146 to 148 °C.
In the case of `NS(=O)(=O)N1CCCCC1` it was 121 to 123 °C.
Next, `CC1CNCC(C)N1C(=O)OC(C)(C)C` (configuration not stated): 61 to 63 °C; `COc1ccc(CC(N)=NO)cc1`: 109 to 111 °C; `Cc1ncc(C(=O)O)c(Br)c1Cl`: 129 to 131 °C.
Next, `O=C(O)c1csc(-c2ccccc2F)n1`: 159 to 161 °C; `Cc1cc(C)c([N+](=O)[O-])c(=O)[nH]1`: 179 to 181 °C.
Compound `CC(C)C(N)c1nn[nH]n1` (configuration not stated) came in with a melting point of 272 to 274 °C.
Next, `O=C(O)CNc1cccc(C(F)(F)F)c1`: 123 to 125 °C; `O=C(O)COc1ccc(N2CCCC2=O)cc1`: 150 to 155 °C.
Next, `CC(C)CCS(=O)(=O)CC(=O)O`: 61 to 63 °C; `Fc1cc(F)cc(-c2n[nH]c(S)n2)c1`: 279 to 281 °C.
In the case of `COC(=O)C(=O)CC(=O)c1ccc(OC)cc1` it was 104 to 106 °C; in that of `Oc1ccc(/C=C/c2ccc3ccccc3n2)cc1`, 289 to 291 °C; in that of `Cc1ccccc1C=NO`, 38 to 40 °C.
`NS(=O)(=O)c1cccnc1Cl`: the melting point fell in the range of 183 to 185 °C.
Next, `N#CC1(NC(=O)c2ccccc2)CCCCC1`: 135 to 137 °C; `Nc1ccc(CCC(=O)O)nc1`: 113 to 115 °C; `NC(=O)c1ncn2c(C(=O)O)cc(-c3ccccc3)nc12`: 254 to 256 °C.
Next, `COC(=O)c1cc(C(=O)OC)[nH]n1`: 149 to 151 °C; `O=C(O)C=Cc1ccc(OCc2ccncc2)cc1`: 298 to 300 °C.
In the case of `CCOc1ccc(-c2nnc(SC(F)F)n2CCC(=O)O)cc1` it was 198 to 200 °C; in that of `Cc1cc(=O)n2nc(Br)sc2n1`, 167 to 169 °C.
Compound `Nc1cc(CCCc2cccs2)no1` displayed a melting point of 43 to 45 °C.
Turning to `COc1ccc(-n2c(C)cc(C=O)c2C)cc1`, the melting point lay within 133 to 135 °C.
Compound `Oc1ccc(-c2noc(-c3cccc(Br)c3)n2)cc1` yielded a melting point of 222 to 224 °C.
In the case of `COc1cc2c(cc1OC)NCC2` it was 103 to 105 °C.
In the case of `COc1cc(CC#N)cc(Cl)c1OCC(F)(F)F` it was 98 to 100 °C; in that of `CCOC(=O)c1[nH]c(C)c(C(=O)O)c1C`, 103 to 105 °C; in that of `Cc1ccc(-c2ccc(O)cc2)cc1`, 155 to 157 °C.
In the case of `O=C(O)c1ccc(-c2ccc(Cl)c(Cl)c2)s1` it was 253 to 255 °C; in that of `COc1sc(C=O)cc1Br`, 115 to 117 °C.
`Cc1cc(Br)cc(Cl)c1C(=O)O` had a melting point of 154 to 156 °C.
Next, `Cc1ccc(NC(=O)NC(=O)CCl)c(C)c1`: 159 to 161 °C; `Cn1ccc(N2CCC(N)C2=O)n1` (configuration not stated): 141 to 143 °C; `O=Cc1cccc(Br)c1O`: 51 to 55 °C.
In the case of `CC(=O)c1ccc2cccc3c2c1CC3` it was 104 to 106 °C; in that of `Cc1cn2c(n1)CCC(N)C2` (configuration not stated), 49 to 51 °C; in that of `Fc1cc2cccnc2cc1F`, 109 to 111 °C.
In the case of `Cc1cc(CCCC(=O)O)c(C)s1` it was 56 to 58 °C; in that of `Cc1cc(C#N)ccc1C(=O)O`, 192 to 194 °C; in that of `NC(=O)c1cc(Cl)nnc1Cl`, 176 to 178 °C.
The compound `O=S1(=O)CCC(CO)CC1` came in with a melting point of 86 to 88 °C.
In the case of `Cn1cc(C=O)c(-c2ccccc2)n1` it was 59 to 61 °C.
Next, `COc1ccc(C(=O)O)cc1OC(F)F`: 179 to 181 °C; `CC(=O)N(C)c1nc(C=O)cs1`: 164 to 166 °C; `O=S(=O)(Cl)c1cccnc1Cl`: 42 to 44 °C.
As for `O=C1NC(=O)N2CCCC12` (configuration not stated), the melting point was 149 to 151 °C.
Next, `NS(=O)(=O)N1CCOCC1`: 161 to 163 °C.
Next, `Cc1cccc(C(N)C(=O)O)c1` (configuration not stated): 229 to 231 °C; `O=C(c1c(Cl)cccc1Cl)N1CCNCC1`: 149 to 151 °C; `NS(=O)(=O)N1CCCc2ccccc21`: 125 to 127 °C.
In the case of `O=C(O)c1ccc2c(=O)[nH]c(S)nc2c1` it was 379 to 381 °C; in that of `O=C(CNCc1cccnc1)Nc1ccc(Cl)cc1`, 81 to 83 °C.
For `CSc1nc(C)nc(C)c1C(=O)O`, the melting point lay in the range of 223 to 225 °C.
Next, `O=C(O)C1CCN(C(=O)c2ccc(Br)cc2)CC1`: 202 to 204 °C.
Next, `CC(C)(C)CS(N)(=O)=O`: 119 to 121 °C; `Nc1ccccc1NC(=O)c1ccncc1`: 179 to 181 °C; `Cc1ncc(C(=O)O)c(C)n1`: 151 to 153 °C.
Regarding `CCOC(=O)c1c(N)sc2c1CCCS2=O` (configuration not stated), the melting point was 189 to 191 °C.
Next, `CSc1ccc(N)cc1F`: 49 to 51 °C; `COc1ccc(N(C(C)=O)c2nc(C=O)cs2)cc1`: 180 to 183 °C.
Regarding `COc1cc(C(C)=O)cc(O)c1OC`, the melting point lay within 59 to 61 °C.
In the case of `c1cc2c(cn1)NCCCN2` it was 121 to 123 °C; in that of `CC(=O)Oc1ccc(-c2ccc(C(=O)O)cc2)cc1`, 275 to 277 °C.
`Cc1nnc2cc(Cl)ncn12`: the melting point is 122 to 124 °C.
In the case of `Sc1nnc(-c2ccccc2)c2ccccc12` it was 178 to 180 °C.
In the case of `Cc1cc2n(n1)C(=O)C(C)C(=O)N2` (configuration not stated) it was 288 to 290 °C.
In turn, `O=C(O)c1ccc(SC2CCOC2=O)cc1` (configuration not stated) gave a melting point of 169 to 171 °C.
In the case of `CCOC(=O)C(=O)CC(=O)c1ccc2c(c1)OCO2` it was 61 to 63 °C; in that of `O=C1COc2cc([N+](=O)[O-])ccc2N1`, 225 to 227 °C; in that of `NS(=O)(=O)c1ccc(NC(=O)OCC(F)(F)F)cc1`, 192 to 194 °C.
Next, `Nc1c(NCC2CCCO2)c(=O)[nH]c(=O)n1Cc1ccccc1` (configuration not stated): 221 to 223 °C.
Next, `N#Cc1ccccc1SCC(=O)O`: 143 to 145 °C; `O=C(O)c1cc(S(=O)(=O)N2CCOCC2)ccc1O`: 234 to 236 °C.
In turn, `O=C(O)C1C2C3CC4C5CC(C42)C1C53` (configuration not stated) registered a melting point of 101 to 103 °C.
As for `CC1CCc2c(sc3nc(CCC(=O)O)[nH]c(=O)c23)C1` (configuration not stated), the melting point lay within 259 to 261 °C.
`CC(C)c1cc(O)ncn1`: the melting point lay in the range of 131 to 133 °C.
In the case of `CS(=O)(=O)c1ccc(C(N)=O)cc1` it was 226 to 228 °C.
Turning to `Cc1ccc(-c2nc3c(s2)C(=O)CCC3)cc1`, the melting point is 128 to 130 °C.
Next, `O=C(O)CCc1ccc(F)cc1F`: 108 to 110 °C.
Next, `CC(C)(C)C=CC(=O)O`: 60 to 62 °C; `CCS(=O)(=O)Nc1ccc(N)cc1`: 88 to 90 °C.
Next, `Cc1nnc(S)n1C1CC1`: 132 to 134 °C.
